Calls of active or inactive are those of the source. The calls are words filed in the database; no cut-off is given here.
Key:
[1] = Stability in presence of 100 U/mL Escherichia coli beta-glucuronidase assessed as SAHA production after 7 mins; assay type: ADME
NCI-H661 = test: Antiproliferative activity against human H661 cells at 1 to 25 uM after 48 hrs; assay type: functional, cell-based
[2] = Stability in presence of 100 U/mL Escherichia coli beta-glucuronidase assessed as SAHA production after 30 mins; assay type: ADME; conditions: 0.5 h
[3] = Stability in presence of 200 to 1000 U/mL bovine liver beta-glucuronisase assessed as SAHA production at 100 ug/mL; assay type: ADME; conditions: cattle

Structure (SMILES) | Stability [1] | Activity (NCI-H661) | Stability [2] | Stability [3]
O=C(CCCCCCC(=O)Nc1ccccc1)NO[C@@H]1O[C@H](C(=O)O)[C@@H](O)[C@H](O)[C@H]1O | Stable | inactive | Stable | Stable
O=C(CCCCCCC(=O)Nc1ccccc1)NO[C@@H]1O[C@H](CO)[C@H](O)[C@H](O)[C@H]1O | – | inactive | – | –

From ChEMBL document CHEMBL1143806, “Synthesis and biological evaluation of the suberoylanilide hydroxamic acid (SAHA) beta-glucuronide and beta-galactoside for application in selective prodrug chemotherapy” (Bioorg Med Chem Lett, 2007)
